According to patent US20180369268A1, “METHODS FOR IDENTIFYING INHIBITORS OF "STIMULATOR OF INTERFERON GENE"- DEPENDENT INTERFERON PRODUCTION” (ADURO BIOTECH, INC., priority 2015, published 2018):
pIC50: −log10 of the molar value.

Each molecule was assayed against T1, STING in THP1 cells (HAQ allele) (Homo sapiens, UniProt Q86WV6, G230A/H232R/R293Q/R71H) (assay: THP-1 competition assay with STING agonist 2′3′-RR-(A)(A) (IRF-3 luciferase reporter)). Conditions: not given.
T1 construct: host or cells: THP-1 dual reporter cells
T1 sequence (Q86WV6 whole entry R71H/G230A/H232R/R293Q): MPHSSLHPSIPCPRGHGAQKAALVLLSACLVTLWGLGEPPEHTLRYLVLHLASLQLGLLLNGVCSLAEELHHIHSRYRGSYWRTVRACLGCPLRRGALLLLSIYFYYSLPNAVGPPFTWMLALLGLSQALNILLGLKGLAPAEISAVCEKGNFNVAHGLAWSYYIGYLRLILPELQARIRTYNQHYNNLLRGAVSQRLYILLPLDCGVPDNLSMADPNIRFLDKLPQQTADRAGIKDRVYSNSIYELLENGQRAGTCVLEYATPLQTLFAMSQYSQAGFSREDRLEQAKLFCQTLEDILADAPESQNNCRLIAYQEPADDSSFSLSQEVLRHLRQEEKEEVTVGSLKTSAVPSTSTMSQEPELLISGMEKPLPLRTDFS
Format: cell-based
Procedure: The scaffold molecules and STING inhibitory compounds as described herein are assayed for their ability to inhibit the induction of STING dependent IFN-β production by an agonist compound in a competition assay. Relative induction of IRF-3 signaling in THP-1 cells (HAQ allele) was measured after stimulating the cells with a mix of a scaffold molecule (or any putative STING antagonist) titrated against a constant concentration of the STING agonist 2′3′-RR-(A)(A) in PB buffer (50 mM HEPES pH 7.5, 100 mM KCl, 3 mM MgCl2, 0.1 mM DTT, 85 mM sucrose, 0.2% BSA, 1 mM ATP, 0.1 mM GTP).
One day prior to performing the assay, THP-1 dual (Invivogen) reporter cells were plated at 500,000 cells/mL in 200 μL per well in a 96-well plate and differentiated overnight with 3 μg/mL phorbal myristate acetate in RPMI medium 1640 (4.5 g/L D-glucose, 2.383 g/L HEPES, 300 mg/L L-glutamine, 1.5 g/L sodium bicarbonate, 110 mg/L sodium pyruvate, 10% heat-inactivated fetal bovine serum, 1× penicillin/streptomycin, 0.1 mg/mL normocin).
On the day of the assay, the media was removed from the wells and replaced with 150 μL of fresh media. The titrations against 2′ 3′-RR-(A)(A) in a final volume of 100 μL were made as follows: two-fold dilutions (2,000 μM-3.9 μM) of the scaffold molecule into PB buffer containing 100 μM 2′3′-RR-(A)(A) for a final concentration of 50 μM 2′3′-RR-(A)(A). Compounds were tested in biological triplicate.
The cells were then stimulated with 25 μL of each titration for 30 minutes at 37° C. in a CO2 incubator. After stimulating, the cells were washed twice, first with 100 μL and then 150 μL of fresh media. After washing, 150 μL of media was added to each well and the cells were incubated for 17 hours overnight at 37° C. in a CO2 incubator.
To detect IRF-3 signaling, 50 μL of luciferase substrate (Invivogen QUANTI-Luc coelenterazine-based luminescence reagent reconstituted in 25 mL water) was added to 10 μL of supernatant from each well in a 96-well white opaque plate. Luminescence was measured using a SpectraMax M3 plate reader (Molecular Devices) and relative fold-induction was calculated as the values obtained from wells containing both the scaffold molecule and 2′3′-RR-(A)(A) divided by the values obtained from wells containing 2′3′-RR-(A)(A) alone. The average of the relative fold-induction was plotted against the log concentration of the antagonist. Agonist compounds 2′3′-RR-(G)(A) and RR-(A)(A) were run as controls in this assay (see FIGS. 2A and 2B).
The results are provided for control compounds in FIGS. 2A and 2B and scaffold molecules in FIGS. […]: 2′3′-SR-(3′OTBS-A)(2′F-A) (FIG. 3A, Comp. 6a), SR-(2′F-A)(2′OTBS-A) (FIG. 3B, Comp. 18a), RR-(2,6-DAP)(2,6-DAP) (FIG. 3C, Comp. 23), RS-(2,6-DAP)(2,6-DAP) (FIG. 3D, Comp. 23a), (6-O-propargyl-G)(G) (FIG. 3E, Comp. 25), RR-(2′F-ibG)(2′F-ibG) (FIG. 3F, Comp. 32), RR-(2′F-C)(2′F-A) (FIG. 3G, Comp. 37), RS-(2′F-C)(2′F-A) (FIG. 3H, Comp. 37a), 3′2′-RR-(ibG)(BzA) (FIG. 3I, Comp. 42), 3′2′-SS-(G)(A) (FIG. 3J, Comp. 43), dithio-3′2′-(2′OTBS-G)(3′OTBS-A) isomer 1 (FIG. 3K, Comp. 49, isomer 1), dithio-3′2′-(2′OTBS-G)(3′OTBS-A) isomer 2 (FIG. 3L, Comp. 49, isomer 2), Beta-L-SS-(A)(A) (FIG. 3M, Comp. 48), Beta-L-RS-(A)(A) (FIG. 3N, Comp. 48a), and Beta-L-RR-(A)(A) (FIG. 3O, Comp. 48b). Isomer 1 and 2 of Compound 49 are different isomers, and are each one of compound 49a, 49b, 49c or 49d.
Molecule `CC(C)(C)[Si](C)(C)O[C@H]1[C@H]2O[P@@](=O)(S)OC[C@H]3O[C@@H](n4cnc5c(N)ncnc54)[C@H](F)[C@@H]3O[P@](=O)(S)OC[C@H]1O[C@H]2n1cnc2c(N)ncnc21` [Compound 6a, dithio-[SP, RP]-cyclic-[3′OTBS-A(2′,5′)p-2′F-A(3′,5′)p]] has a pIC50 of 2.66.

Same assay, conditions: 50 μM 2′3′-RR-(A)(A), scaffold 2,000 μM-3.9 μM, without digitonin, IRF-3 reporter; read-out: IC50 inhibition of 2′3′-RR-(A)(A) agonist activity without digitonin in THP1 cells (HAQ allele)
`Nc1nc(N)c2ncn([C@@H]3O[C@@H]4CO[P@@](=O)(S)O[C@H]5[C@@H](O)[C@H](n6cnc7c(N)nc(N)nc76)O[C@@H]5CO[P@](=O)(S)O[C@H]4[C@H]3O)c2n1` [Compound 23a, (2R,3R,3aS,5R,7aR,9R,10R,10aS,12S,14aR)-2,9-bis(2,6-diamino-9H-purin-9-yl)-3,10-dihydroxy-5,12-dimercaptooctahydro-2H,7H-difuro[3,2-d:3′,2′-j][1,3,7,9]tetraoxa[2,8]diphosphacyclododecine 5,12-dioxide] was tested, and the pIC50 was 3.82.
`CC(C)C(=O)Nc1nc2c(ncn2[C@@H]2O[C@@H]3CO[P@@](=O)(S)O[C@@H]4[C@H](O)[C@@H](CO[P@@](=O)(S)O[C@H]3[C@H]2O)O[C@H]4n2cnc3c(NC(=O)c4ccccc4)ncnc32)c(=O)[nH]1` [Compound 42, dithio-[RP, RP]-cyclic-[ibG(3′,5′)p-BzA(2′,5′)p]] gave a pIC50 of 3.02.
With `Nc1nc(N)c2ncn([C@@H]3O[C@@H]4CO[P@@](=O)(S)O[C@H]5[C@@H](O)[C@H](n6cnc7c(N)nc(N)nc76)O[C@@H]5CO[P@@](=O)(S)O[C@H]4[C@H]3O)c2n1` [Compound 23, (2R,3R,3aS,5R,7aR,9R,10R,10aS,12R,14aR)-2,9-bis(2,6-diamino-9H-purin-9-yl)-3,10-dihydroxy-5,12-dimercaptooctahydro-2H,7H-difuro[3,2-d:3′,2′-j][1,3,7,9]tetraoxa[2,8]diphosphacyclododecine 5,12-dioxide] the pIC50 was 3.82.
With `Nc1ncnc2c1ncn2[C@H]1O[C@H]2CO[P@@](=O)(S)O[C@@H]3[C@H](O)[C@@H](n4cnc5c(N)ncnc54)O[C@H]3CO[P@](=O)(S)O[C@@H]2[C@@H]1O` [Compound 48a, Triethylammonium (2S,3S,3aR,5R,7aS,9S,10S,10aR,12S,14aS)-2,9-bis(6-amino-9H-purin-9-yl)-3,10-dihydroxyoctahydro-2H, 7H-difuro[3,2-d: 3′,2′-j][1,3,7,9]tetraoxa[2,8]diphosphacyclododecine-5,12-bis(thiolate) 5,12-dioxide] the pIC50 was 3.51.
Work on `C#CCOc1nc(N)nc2c1ncn2[C@@H]1O[C@@H]2COP(=O)(O)O[C@H]3[C@@H](O)[C@H](n4cnc5c(=O)[nH]c(N)nc54)O[C@@H]3COP(=O)(O)O[C@H]2[C@H]1O` [compound 25, 2-amino-9-((2R,3R,3aS,7aR,9R,10R,10aS,14aR)-9-(2-amino-6-(prop-2-yn-1-yloxy)-9H-purin-9-yl)-3,5,10,12-tetrahydroxy-5,12-dioxidooctahydro-2H,7H-difuro[3,2-d:3′,2′-j][1,3,7,9]tetraoxa[2,8]diphosphacyclododecin-2-yl)-1,9-dihydro-6H-purin-6-one] yielded a pIC50 of 2.30.
In the case of `Nc1ccn([C@@H]2O[C@@H]3CO[P@@](=O)(S)O[C@H]4[C@@H](F)[C@H](n5cnc6c(N)ncnc65)O[C@@H]4CO[P@@](=O)(S)O[C@H]3[C@H]2F)c(=O)n1` [Compound 37, 4-amino-1-((2R,3R,3aR,5R,7aR,9R,10R,10aR,12R,14aR)-9-(6-amino-9H-purin-9-yl) 3,10-difluoro-5,12-dimercapto 5,12-dioxidooctahydro-2H,7H-difuro[3,2-d:3′,2′-j][1,3,7,9]tetraoxa[2,8]diphosphacyclododecin-2-yl)pyrimidin-2(1H)-one], the pIC50 was 2.39.
For `Nc1nc2c(ncn2[C@@H]2O[C@@H]3CO[P@](=O)(S)O[C@@H]4[C@H](O)[C@@H](CO[P@](=O)(S)O[C@H]3[C@H]2O)O[C@H]4n2cnc3c(N)ncnc32)c(=O)[nH]1` [Compound 43], the pIC50 was 2.39.
`CC(C)C(=O)Nc1nc2c(ncn2[C@@H]2O[C@@H]3CO[P@@](=O)(S)O[C@H]4[C@@H](F)[C@H](n5cnc6c(=O)[nH]c(NC(=O)C(C)C)nc65)O[C@@H]4CO[P@@](=O)(S)O[C@H]3[C@H]2F)c(=O)[nH]1` [Compound 32, N,N′-(((2R,3R,3aR,5R,7aR,9R,10R,10aR,12R,14aR)-3,10-difluoro-5,12-dimercapto-5,12-dioxidooctahydro-2H, 7H-difuro[3,2-d:3′,2′-j][1,3,7,9]tetraoxa[2,8]diphosphacyclododecine-2,9-diyl)bis(6-oxo-6,9-dihydro-1H-purine-9,2-diyl))bis(2-methylpropanamide)] gave a pIC50 of 3.10.
`Nc1ncnc2c1ncn2[C@H]1O[C@H]2CO[P@](=O)(S)O[C@@H]3[C@H](O)[C@@H](n4cnc5c(N)ncnc54)O[C@H]3CO[P@](=O)(S)O[C@@H]2[C@@H]1O` [Compound 48, (2S,3S,3aR,5S,7aS,9S,10S,10aR,12S,14aS)-2,9-bis(6-amino-9H-purin-9-yl)-3,10-dihydroxy-5,12-dimercaptooctahydro-2H,7H-difuro[3,2-d:3′,2′-j][1,3,7,9]tetraoxa[2,8]diphosphacyclododecine 5,12-dioxide] gave a pIC50 of 3.18.
Work on `Nc1ccn([C@@H]2O[C@@H]3CO[P@](=O)(S)O[C@H]4[C@@H](F)[C@H](n5cnc6c(N)ncnc65)O[C@@H]4CO[P@@](=O)(S)O[C@H]3[C@H]2F)c(=O)n1` [Compound 37a, 4-amino-1-((2R,3R,3aR,5R,7aR,9R,10R, 10aR,12S,14aR)-9-(6-amino-9H-purin-9-yl)-3,10-difluoro-5,12-dimercapto-5,12-dioxidooctahydro-2H,7H-difuro[3,2-d: 3′,2′-j][1,3,7,9]tetraoxa[2,8]diphosphacyclododecin-2-yl)pyrimidin-2(1H)-one] yielded a pIC50 of 2.50.
`Nc1ncnc2c1ncn2[C@H]1O[C@H]2CO[P@@](=O)(S)O[C@@H]3[C@H](O)[C@@H](n4cnc5c(N)ncnc54)O[C@H]3CO[P@@](=O)(S)O[C@@H]2[C@@H]1O` [Compound 48b, triethylammonium (2S,3S,3R,5R,7aS,9S,10S,10aR,12R,14aS)-2,9-bis(6-amino-9H-purin-9-yl)-3,10-dihydroxyoctahydro-2H,7H-difuro[3,2-d: 3′,2′-j][1,3,7,9]tetraoxa[2,8]diphosphacyclododecine-5,12-bis(thiolate) 5,12-dioxide] gave a pIC50 of 3.47.
